According to US20120064062A1 (priority 2010, published 2012):
pIC50, pKi: −log10 of the molar value. Where a SMILES comes first, the peptide text is derived from it. [ ]: non-standard residue; d: D form. The star is where a group is joined. Sta = CC(C)C[C@H](N)[C@@H](O)CC(=O)O; Isovaleryl = CC(C)CC(=O)*

What was measured:
[1] = target: Y. pestis Pla (Yersinia pestis, UniProt P17811); assay: biochemical
[2] = target: T1, Pla (Yersinia pestis, UniProt P17811); format: biochemical
Target sequence in this assay (P17811 21-312 limits assumed): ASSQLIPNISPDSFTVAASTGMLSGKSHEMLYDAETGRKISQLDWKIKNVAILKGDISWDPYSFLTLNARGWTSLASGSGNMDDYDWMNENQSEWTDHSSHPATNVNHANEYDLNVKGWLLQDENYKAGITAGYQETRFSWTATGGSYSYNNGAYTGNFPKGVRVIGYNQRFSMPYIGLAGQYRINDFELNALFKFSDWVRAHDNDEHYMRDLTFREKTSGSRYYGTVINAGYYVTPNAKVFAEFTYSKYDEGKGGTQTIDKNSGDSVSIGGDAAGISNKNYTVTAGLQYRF

[3] = target: T1, Pla; assay: biochemical
[4] = Cytotoxicity to HeLa cells in serum-free culture (MTS); details: human
[5] = target: T2, urokinase type plasminogen activator (uPA) (Homo sapiens, UniProt P00749); assay: uPA plasminogen activator counter-screen (Glu-Plg, S2251); format: biochemical; details: z-score = number of standard deviations below DMSO control
T2 construct: purchased US Biological, Inc. U2605-01

[6] = target: Plasmin (Homo sapiens, UniProt P00747); assay: Plasmin inhibitory activity counter-screen (coupling enzyme); format: biochemical; details: z-score = number of standard deviations the enzymatic activity falls below the DMSO non-inhibitory control
Sequence of Plasmin (P00747 581-810 limits assumed): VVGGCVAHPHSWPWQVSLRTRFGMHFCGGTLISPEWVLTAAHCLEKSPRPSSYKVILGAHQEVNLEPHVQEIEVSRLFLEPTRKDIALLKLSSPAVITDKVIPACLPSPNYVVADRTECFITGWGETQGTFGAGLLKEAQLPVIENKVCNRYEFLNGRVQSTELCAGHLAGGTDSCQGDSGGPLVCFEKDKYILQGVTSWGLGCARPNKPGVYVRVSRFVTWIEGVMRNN
Sequence of Plasmin (P00747 97-580 partner limits assumed): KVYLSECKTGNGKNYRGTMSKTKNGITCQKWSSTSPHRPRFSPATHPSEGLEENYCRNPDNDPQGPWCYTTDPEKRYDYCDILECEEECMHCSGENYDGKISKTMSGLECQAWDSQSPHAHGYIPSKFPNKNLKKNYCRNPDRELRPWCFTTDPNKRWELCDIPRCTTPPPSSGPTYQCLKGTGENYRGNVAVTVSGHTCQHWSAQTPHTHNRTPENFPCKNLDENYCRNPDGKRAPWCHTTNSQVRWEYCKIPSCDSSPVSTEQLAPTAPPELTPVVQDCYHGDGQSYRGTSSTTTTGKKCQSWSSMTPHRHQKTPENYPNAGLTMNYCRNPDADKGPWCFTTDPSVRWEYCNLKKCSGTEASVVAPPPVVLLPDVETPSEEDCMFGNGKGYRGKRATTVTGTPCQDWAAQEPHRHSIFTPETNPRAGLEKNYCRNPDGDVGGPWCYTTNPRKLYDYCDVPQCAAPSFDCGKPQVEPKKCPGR

[7] = target: T3, cathepsin E (Homo sapiens, UniProt P14091); assay: Cathepsin E fluorometric counter-screen; format: biochemical; details: z-score = number of standard deviations below DMSO control
T3 construct: purchased R&D Systems 1294-AS-010
T3 sequence (P14091 54-396): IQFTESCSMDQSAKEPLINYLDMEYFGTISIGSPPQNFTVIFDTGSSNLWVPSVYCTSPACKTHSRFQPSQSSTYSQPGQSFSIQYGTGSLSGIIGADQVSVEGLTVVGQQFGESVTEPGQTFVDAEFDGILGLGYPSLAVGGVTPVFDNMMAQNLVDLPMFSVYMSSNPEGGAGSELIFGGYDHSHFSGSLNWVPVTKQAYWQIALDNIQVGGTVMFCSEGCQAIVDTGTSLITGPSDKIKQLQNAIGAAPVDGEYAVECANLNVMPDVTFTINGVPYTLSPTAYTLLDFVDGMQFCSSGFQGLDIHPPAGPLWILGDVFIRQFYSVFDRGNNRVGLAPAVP

[8] = target: T4, cathepsin D (Homo sapiens, UniProt P07339); assay: Cathepsin D fluorometric counter-screen; format: biochemical; details: z-score = number of standard deviations below DMSO control
T4 construct: purchased R&D Systems 1014-AS-010
T4 sequence (P07339 65-412): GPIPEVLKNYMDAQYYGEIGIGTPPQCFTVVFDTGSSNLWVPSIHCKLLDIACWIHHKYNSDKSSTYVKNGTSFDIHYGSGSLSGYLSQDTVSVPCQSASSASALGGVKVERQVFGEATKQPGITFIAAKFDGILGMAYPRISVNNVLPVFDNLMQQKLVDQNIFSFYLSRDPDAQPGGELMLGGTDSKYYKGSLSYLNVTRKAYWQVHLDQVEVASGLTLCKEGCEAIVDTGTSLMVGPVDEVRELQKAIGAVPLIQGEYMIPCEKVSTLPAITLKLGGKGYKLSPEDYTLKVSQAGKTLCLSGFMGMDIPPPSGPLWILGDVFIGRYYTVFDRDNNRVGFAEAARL

[9] = target: T5, HIV-1 protease (Human immunodeficiency virus type 1 group M subtype B, UniProt P04585); assay: HIV-1 protease counter-screen; format: biochemical; details: % of the enzymatic activity of a DMSO non-inhibitory control
T5 construct: Plasmin, tPA, uPA, Cathepsin D, Cathepsin E, and HIV-1 protease

[10] = target: T6, tissue plasminogen activator (tPA) (Homo sapiens, UniProt P00750); assay: tPA plasminogen activator counter-screen (Glu-Plg, S2251); format: biochemical; details: z-score = number of standard deviations below DMSO control
T6 construct: purchased US Biological, Inc. T5600-30
T6 sequence (P00750 36-562): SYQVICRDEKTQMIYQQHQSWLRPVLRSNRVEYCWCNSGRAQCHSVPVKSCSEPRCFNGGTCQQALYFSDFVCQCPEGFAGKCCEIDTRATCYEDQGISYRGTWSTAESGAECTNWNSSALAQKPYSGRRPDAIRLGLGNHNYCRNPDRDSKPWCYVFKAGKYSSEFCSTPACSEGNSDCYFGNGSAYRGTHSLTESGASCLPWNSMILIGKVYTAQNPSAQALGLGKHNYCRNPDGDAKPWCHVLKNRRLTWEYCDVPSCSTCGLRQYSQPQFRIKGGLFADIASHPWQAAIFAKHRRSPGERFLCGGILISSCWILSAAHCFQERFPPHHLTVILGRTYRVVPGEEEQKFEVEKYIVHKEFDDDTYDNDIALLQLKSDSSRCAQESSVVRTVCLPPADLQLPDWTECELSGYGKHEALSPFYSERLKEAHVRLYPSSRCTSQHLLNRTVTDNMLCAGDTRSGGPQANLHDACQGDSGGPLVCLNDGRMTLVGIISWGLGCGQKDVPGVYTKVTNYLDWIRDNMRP

Sequence of Y. pestis Pla (P17811 21-312 limits assumed): as the sequence (P17811 21-312 limits assumed) above

COc1ccc(S(=O)(=O)Nc2ccccc2Oc2ccccc2)c(OC)c1 [F]
pIC50 [1]: 4.28

COc1ccc(S(=O)(=O)Nc2ccccc2Oc2ccccc2)cc1C [C]
pIC50 [1]: 4.66

COC(=O)c1c(C)oc2ccc(N(C(=O)c3ccncc3)S(=O)(=O)c3ccc(F)cc3C)cc12 [A]
pIC50 [1]: 5.18

O=C(O)CN(CCN(CC(=O)O)CC(=O)O)CC(=O)O [EDTA]
Inhibitory effect against Pla [2]: enhance activity

NCCCC[C@H](NC(=O)[C@@H](N)CCCN=C(N)N)C(=O)O [Arg-Lys] (H-Arg-Lys-OH)
pKi [3]: 3.05

COc1ccc(C)cc1S(=O)(=O)Nc1cc(Cl)ccc1Oc1ccccc1 [G]
pIC50 [1]: 4.07

O=S(=O)(Nc1ccccc1Oc1ccccc1)c1cc(Cl)ccc1Cl [I]
pIC50 [1]: 3.86

CC(C)[C@H](NC(=O)[C@@H](N)CCCCN)C(=O)O [Lys-Val, reference compound] (H-Lys-Val-OH; C-terminus assumed)
inhibition at 16000 µM ([1]; read-out: Average inhibition): 60%
pKi [3]: 2.08

CC(C)[C@H](NC(=O)[C@@H](N)CCCNC(=N)N)C(=O)O [Arg-Val] (H-Arg-Val-OH; N-terminus and C-terminus assumed)
pKi [3]: 2.32

O=S(=O)(Nc1ccccc1C1=NCCc2ccccc21)c1ccc(Cl)cc1 [D]
pIC50 [1]: 4.45

NCCCC[C@H](NC(=O)[C@@H](N)CCCCN)C(=O)O [Lys-Lys]
pKi [3]: 2.35

O=S(=O)(Nc1cc(Cl)ccc1Oc1ccccc1)c1cccs1 [Compound 3]
pIC50 [1]: 6.00
CC50 [4]: 49 µM
selectivity ratio [4]: ~50
uPA Z-Score at 50 μM [5]: 0.5
Plasmin Z-Score at 50 μM [6]: 2.5
Cathepsin-E Z-Score at 50 μM [7]: 0.4
Cathepsin-D Z-Score at 50 μM [8]: 0
inhibition at 50 µM [9]: 13%
tPA Z-Score at 50 μM [10]: 0.3

NC(N)=NCCC[C@H](N)C(=O)NCC(=O)O [Arg-Gly] (H-Arg-Gly-OH)
pKi [3]: 2.28

O=S(=O)(Nc1ccccc1-c1ccccc1)c1cccs1 [Compound 2]
pIC50 [1]: 5.37
CC50 [4]: 62 µM
uPA Z-Score at 50 μM [5]: 0.5
Plasmin Z-Score at 50 μM [6]: 1.8
Cathepsin-E Z-Score at 50 μM [7]: −0.3
Cathepsin-D Z-Score at 50 μM [8]: −1.6
inhibition at 50 µM [9]: 2%
tPA Z-Score at 50 μM [10]: 0.5

O=C(O)CN(CCOCCOCCN(CC(=O)O)CC(=O)O)CC(=O)O [EGTA]
Inhibitory effect against Pla [2]: enhance activity

O=S(=O)(Nc1cc(Cl)ccc1Oc1ccccc1)c1ccc2c(c1)OCCO2 [Compound 1]
pIC50 [1]: 5.37
CC50 [4]: > 100 µM
uPA Z-Score at 50 μM [5]: 0.5
Plasmin Z-Score at 50 μM [6]: 4.9
Cathepsin-E Z-Score at 50 μM [7]: −0.1
Cathepsin-D Z-Score at 50 μM [8]: −0.2
inhibition at 50 µM [9]: 10%
tPA Z-Score at 50 μM [10]: −0.3

CC(=O)Nc1ccc(S(=O)(=O)Nc2ccccc2Oc2ccccc2)cc1 [E]
pIC50 [1]: 4.30

Cc1ccc(S(=O)(=O)Nc2ccccc2C(=O)c2ccccc2)cc1 [H]
pIC50 [1]: 4.00

O=[N+]([O-])c1ccccc1S(=O)(=O)Nc1cc(Cl)ccc1Oc1ccccc1 [Compound 4]
pIC50 [1]: 5.00
CC50 [4]: 47 µM
uPA Z-Score at 50 μM [5]: 1
Plasmin Z-Score at 50 μM [6]: 1.4
Cathepsin-E Z-Score at 50 μM [7]: 0.9
Cathepsin-D Z-Score at 50 μM [8]: 0.6
inhibition at 50 µM [9]: 11%
tPA Z-Score at 50 μM [10]: 0.4

O=S(=O)(Nc1ccccc1-c1ccccc1)c1ccc(Br)s1 [B]
pIC50 [1]: 5.05

NCCCC[C@H](N)C(=O)NCC(=O)O [Lys-Gly] (H-Lys-Gly-OH)
pKi [3]: 2.25

CC(C)CC(=O)N[C@H](C(=O)N[C@H](C(=O)N[C@@H](CC(C)C)[C@@H](O)CC(=O)N[C@@H](C)C(=O)N[C@@H](CC(C)C)[C@@H](O)CC(=O)O)C(C)C)C(C)C [pepstatin] (Isovaleryl-VV[Sta]A[Sta]-OH)
Inhibitory effect against Pla [2]: no inhibitory effect
